According to ChEMBL document CHEMBL4014321, “Discovery of Pyrazolo[1,5-a]pyrimidine B-Cell Lymphoma 6 (BCL6) Binders and Optimization to High Affinity Macrocyclic Inhibitors” (J Med Chem, 2017):
Values after ≈ are worked out from the molar mass of the structure shown.

Legend:
TMD8 = assay: Antiproliferative activity against BCL6 dependent human TMD8 cells after 3 days by CellTiter-Glo assay; format: functional; conditions: TMD8, 72 h
OCI-Ly1 = assay: Antiproliferative activity against BCL6 dependent human OCI-LY1 cells after 3 days by CellTiter-Glo assay; format: functional; conditions: OCI-Ly1, 72 h
SUD4 = assay: Antiproliferative activity against BCL6 dependent human SUDHL4 cells after 3 days by CellTiter-Glo assay; format: functional; conditions: SU-DHL-4, 72 h
[1] = Inhibition of human CK2 protein
KARPAS-422 = assay: Antiproliferative activity against BCL6 […] human KARPAS422 cells after 3 days by CellTiter-Glo assay; format: functional; conditions: KARPAS-422, 72 h
OCI-LY19 = assay: Antiproliferative activity against BCL6 independent human OCI-LY19 cells after 3 days by CellTiter-Glo assay; format: functional; conditions: OCI-LY19, 72 h
AMO1 = assay: Antiproliferative activity against BCL6 dependent human AMO1 cells after 3 days by CellTiter-Glo assay; format: functional; conditions: AMO1, 72 h
OCI-Ly3 = assay: Antiproliferative activity against BCL6 dependent human OCI-LY3 cells after 3 days by CellTiter-Glo assay; format: functional; conditions: OCI-Ly3, 72 h
SU-DHL-2 = assay: Antiproliferative activity against BCL6 dependent human SU-DHL-2 cells after 3 days by CellTiter-Glo assay; format: functional; conditions: SU-DHL-2, 72 h
OCI-Ly10 = assay: Antiproliferative activity against BCL6 dependent human OCI-LY10 cells after 3 days by CellTiter-Glo assay; format: functional; conditions: OCI-Ly10, 72 h
U2932 = assay: Antiproliferative activity against BCL6 dependent human U2932 cells after 3 days by CellTiter-Glo assay; format: functional; conditions: U2932, 72 h
[2] = biological target: T1, B-cell lymphoma 6 protein (Homo sapiens, UniProt P41182, C67R/C84N/C8Q); assay: Inhibition of SMRT2 H1426W mutant peptide binding to N-terminal His6-tagged human BCL6 BTB domain C8Q/C67R/C84N mutant expressed in Escherichia coli BL21 (DE3) preincubated for 30 mins followed by SMRT2 H1426W mutant peptide addition measured after 60 mins by time-resolved fluorescence resonance energy transfer assay
[3] = biological target: T1, B-cell lymphoma 6 protein; assay: Binding affinity to N-terminal His6-tagged human BCL6 BTB domain C8Q/C67R/C84N mutant expressed in Escherichia coli BL21 (DE3) by surface plasmon resonance spectrometry
Homo sapiens [4] = species: Homo sapiens; assay: Inhibition of human CK2 protein at 1 uM relative to control
Homo sapiens [5] = species: Homo sapiens; assay: Selectivity ratio of IC50 for human CK2 protein to IC50 for N-terminal His6-tagged human BCL6 BTB domain C8Q/C67R/C84N mutant
[6] = Octanol-buffer partition co-efficient, log D of the compound at pH 7.4 after 30 mins by shake flask method; format: physicochemical
[7] = Apparent permeability in human Caco2 cells; format: ADME, cell-based; conditions: Caco-2
[8] = Aqueous solubility of the compound at pH 7.4 after 24 hrs by LC-UV method; format: physicochemical
[9] = biological target: 5-hydroxytryptamine receptor 1B (Homo sapiens, UniProt P28222); assay: Agonist activity at 5-HT1B receptor (unknown origin)
5-hydroxytryptamine receptor 1B, sequence (P28222 whole entry): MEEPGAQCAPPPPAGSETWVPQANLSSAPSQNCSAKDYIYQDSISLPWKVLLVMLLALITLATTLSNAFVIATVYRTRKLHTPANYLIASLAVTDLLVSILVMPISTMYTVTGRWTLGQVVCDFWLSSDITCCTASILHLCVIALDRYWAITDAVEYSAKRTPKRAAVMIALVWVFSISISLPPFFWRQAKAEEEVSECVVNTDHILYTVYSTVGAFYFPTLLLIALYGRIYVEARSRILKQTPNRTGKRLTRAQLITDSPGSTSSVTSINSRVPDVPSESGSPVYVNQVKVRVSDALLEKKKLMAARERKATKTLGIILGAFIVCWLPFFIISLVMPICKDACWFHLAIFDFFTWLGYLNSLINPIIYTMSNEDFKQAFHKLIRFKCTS

[10] = Binding affinity to GABA receptor (unknown origin) by radioligand displacement assay; set-up: species or system Homo sapiens

GI50 (OCI-Ly1)	IC50 [1]	GI50 (KARPAS-422)	GI50 (OCI-LY19)	GI50 (OCI-Ly3)	GI50 (SU-DHL-2)	GI50 (OCI-Ly10)	IC50 [2]	Kd [3]	inhibition (Homo sapiens [4])	Ratio IC50 (Homo sapiens [5])	logD at 0.5 h [6]	Papp [7]	solubility at 24 h [8]	EC50 [9]	Ki [10]	SMILES	GI50 (TMD8)	GI50 (SUD4)	GI50 (AMO1)	GI50 (U2932)
15.8 µM	0.16 µM	20 µM	10 µM	20 µM	20 µM	15.8 µM	–	–	–	–	–	–	–	–	–	O=C(O)C[C@@H]1C[C@H]2CN1c1cc(n3ncc(Cl)c3n1)Nc1cc3c(c(c1)OC/C=C/CO2)N(CC1CC(F)(F)C1)C(=O)CC3	15.8 µM	15.8 µM	31.6 µM	15.8 µM
10 µM	–	7.94 µM	6.31 µM	3.98 µM	3.16 µM	5.01 µM	0.0029 µM	0.0065 µM	> 60%	220	2.2	–	–	–	–	N#Cc1cnn2c3cc(nc12)N1C[C@H](C[C@H]1CO)OC/C=C/COc1cc(cc2c1NC(=O)CC2)N3	7.94 µM	7.94 µM	15.8 µM	6.31 µM
–	0.012 µM	–	–	–	–	–	–	–	–	–	–	–	–	–	–	CC(=O)Nc1ccc(-c2cc(NC3CC3)n3ncc(C#N)c3n2)cc1N1CC[C@@H](N(C)C)C1	–	–	–	–
–	–	–	–	–	–	–	–	689 µM	–	–	–	–	–	–	–	CCNc1cc(-c2cccnc2)nc2ccnn12	–	–	–	–
10 µM	> 10 µM	> 31.6 µM	10 µM	15.8 µM	6.31 µM	10 µM	–	–	–	–	–	–	–	–	–	Cc1ccccc1CN1C(=O)CCc2cc3cc(c21)OC/C=C/CO[C@H]1C[C@@H](CO)N(C1)c1cc(n2ncc(Cl)c2n1)N3	20 µM	6.31 µM	25.1 µM	10 µM
7.94 µM	–	7.94 µM	7.94 µM	3.98 µM	10 µM	7.94 µM	–	–	–	–	–	–	–	–	–	N#Cc1cnn2c3cc(nc12)N1CC[C@@H](C1)OCCCCOc1cc(cc2c1NC(=O)CC2)N3	5.01 µM	10 µM	10 µM	10 µM
–	–	–	–	–	–	–	0.35 µM	1.1 µM	–	–	–	–	–	–	–	N#Cc1cnn2c(Nc3ccc4c(c3)CCC(=O)N4)cc(N3CCC[C@H]3CC(=O)O)nc12	–	–	–	–
7.94 µM	2.1 µM	10 µM	6.31 µM	12.6 µM	7.94 µM	7.94 µM	–	–	–	–	–	–	–	–	–	O=C1CCc2cc3cc(c2N1CC1CC(F)(F)C1)OC/C=C/CO[C@H]1C[C@@H](CO)N(C1)c1cc(n2ncc(Cl)c2n1)N3	10 µM	10 µM	25.1 µM	6.31 µM
–	–	–	–	–	–	–	2.9 µM	–	–	–	–	–	–	–	–	N#Cc1cnn2c(Nc3ccc4c(c3)CCC(=O)N4)cc(N3CCCC3)nc12	–	–	–	–
7.94 µM	> 10 µM	> 31.6 µM	10 µM	15.8 µM	6.31 µM	12.6 µM	–	–	–	–	–	–	–	–	–	Cc1ccc(CN2C(=O)CCc3cc4cc(c32)OC/C=C/CO[C@H]2C[C@@H](CO)N(C2)c2cc(n3ncc(Cl)c3n2)N4)cc1	15.8 µM	20 µM	20 µM	10 µM
3.98 µM	7.3 µM	5.01 µM	2 µM	2 µM	3.98 µM	1.58 µM	–	–	–	–	–	46 ×10⁻⁶ cm/s	31 µM (≈ 15.4 µg/mL)	–	–	O=C1CCc2cc3cc(c2N1)OC/C=C/CO[C@H]1C[C@@H](CO)N(C1)c1cc(n2ncc(Cl)c2n1)N3	2.51 µM	6.31 µM	3.16 µM	2.51 µM
–	–	–	–	–	–	–	> 100 µM	–	–	–	–	–	–	–	–	N#Cc1cnn2c(Nc3ccccc3)cc(N3CCCC3)nc12	–	–	–	–
10 µM	> 10 µM	12.6 µM	12.6 µM	12.6 µM	7.94 µM	10 µM	–	–	–	–	–	–	–	–	–	O=C1CCc2cc3cc(c2N1Cc1ccncc1)OC/C=C/CO[C@H]1C[C@@H](CO)N(C1)c1cc(n2ncc(Cl)c2n1)N3	10 µM	10 µM	20 µM	10 µM
20 µM	0.69 µM	12.6 µM	10 µM	20 µM	12.6 µM	12.6 µM	–	–	–	–	–	–	–	–	–	O=C(O)CCN1C(=O)/C(=C2/C(=O)Nc3ccc(Cl)cc32)SC1=S	10 µM	10 µM	20 µM	12.6 µM
–	–	–	–	–	–	–	> 99 µM	–	–	–	–	–	–	–	–	N#Cc1cnn2c(NC3CC3)cc(N3CCCC3)nc12	–	–	–	–
12.6 µM	> 10 µM	25.1 µM	10 µM	12.6 µM	10 µM	10 µM	–	–	–	–	–	–	–	0.57 µM	0.25 µM	O=C1CCc2cc3cc(c2N1Cc1ccccc1)OC/C=C/CO[C@H]1C[C@@H](CO)N(C1)c1cc(n2ncc(Cl)c2n1)N3	10 µM	15.8 µM	25.1 µM	7.94 µM
12.6 µM	> 10 µM	12.6 µM	12.6 µM	15.8 µM	10 µM	12.6 µM	–	–	–	–	–	–	–	–	–	O=C1CCc2cc3cc(c2N1)OCCCCO[C@H]1C[C@@H](CO)N(C1)c1cc(n2nccc2n1)N3	10 µM	20 µM	12.6 µM	15.8 µM
–	–	–	–	–	–	–	0.59 µM	–	–	–	–	–	–	–	–	N#Cc1cnn2c(Nc3ccc4c(c3)CCC(=O)N4)cc(N3CCC[C@@H]3CO)nc12	–	–	–	–
10 µM	5.9 µM	12.6 µM	7.94 µM	10 µM	10 µM	7.94 µM	–	–	–	–	–	–	–	–	–	O=C1CCc2cc3cc(c2N1CCCN1CCOCC1)OC/C=C/CO[C@H]1C[C@@H](CO)N(C1)c1cc(n2ncc(Cl)c2n1)N3	10 µM	12.6 µM	12.6 µM	10 µM
6.31 µM	7 µM	5.01 µM	5.01 µM	6.31 µM	3.16 µM	6.31 µM	–	–	–	–	–	–	–	–	–	CN1C(=O)CCc2cc3cc(c21)OC/C=C/CO[C@H]1C[C@@H](CO)N(C1)c1cc(n2ncc(Cl)c2n1)N3	3.98 µM	6.31 µM	5.01 µM	5.01 µM
6.31 µM	> 10 µM	25.1 µM	10 µM	> 31.6 µM	6.31 µM	6.31 µM	–	–	–	–	–	–	–	–	–	COc1cccc(CN2C(=O)CCc3cc4cc(c32)OC/C=C/CO[C@H]2C[C@@H](CO)N(C2)c2cc(n3ncc(Cl)c3n2)N4)c1	20 µM	31.6 µM	15.8 µM	15.8 µM
–	–	–	–	–	–	–	> 99 µM	319 µM	–	–	–	–	–	–	–	N#Cc1cnn2c(NC3CC3)ccnc12	–	–	–	–
–	–	–	–	–	–	–	0.37 µM	0.5 µM	–	–	2.3	–	–	–	–	N#Cc1cnn2c(Nc3ccc4c(c3)CCC(=O)N4)cc(N3CCC[C@H]3CO)nc12	–	–	–	–
6.31 µM	1.4 µM	5.01 µM	1.58 µM	3.16 µM	3.98 µM	2.51 µM	–	–	–	–	–	–	–	–	–	O=C1CCc2cc3cc(c2N1)OCCCCO[C@H]1C[C@@H](CO)N(C1)c1cc(n2ncc(Cl)c2n1)N3	3.16 µM	10 µM	3.98 µM	5.01 µM
> 31.6 µM	2.2 µM	> 31.6 µM	15.8 µM	> 31.6 µM	20 µM	20 µM	–	–	–	–	–	–	–	–	–	O=C1CCc2cc3cc(c2N1CC1CC1)OC/C=C/CO[C@H]1C[C@@H](CO)N(C1)c1cc(n2ncc(Cl)c2n1)N3	25.1 µM	> 31.6 µM	> 31.6 µM	10 µM
25.1 µM	0.4 µM	20 µM	15.8 µM	12.6 µM	12.6 µM	10 µM	–	–	–	–	–	–	–	–	–	N#Cc1cnn2c3cc(nc12)N1C[C@H](C[C@H]1CO)OCCCCOc1cc(cc2c1NC(=O)CC2)N3	15.8 µM	25.1 µM	20 µM	15.8 µM
3.16 µM	1.2 µM	5.01 µM	5.01 µM	6.31 µM	2.51 µM	3.98 µM	–	–	–	–	–	–	–	–	–	COc1cccc(CN2C(=O)CCc3cc4cc(c32)OC/C=C/CO[C@H]2C[C@@H](CO)N(C2)c2cc(n3ncc(C#N)c3n2)N4)c1	3.98 µM	6.31 µM	10 µM	3.98 µM
